Data as given in US6586393B2, “Antibiotics GE 23077, pharmaceutically acceptable salts and compositions, and use thereof” (priority 2000, dated 2003).
Read-outs that look alike come from different tables or passages of the source.

Experiments:
E. coli RNA polymerase = molecular target: T1, E. coli RNA polymerase (Escherichia coli, UniProt P0A8T7+P0A8V2); experiment: Inhibition of RNA polymerase, cell free transcription assay (3H-UTP incorporation); type: biochemical; conditions: 37° C., 15 minutes
T1 construct: purchased Epicentre Technology; Madison Wis
Method: The inhibition of RNA polymerase was determined in a cell free transcription assay performed in standard U-bottom 96-well plates. The [H^3]-UTP incorporation in RNA was measured in the material precipitated upon addition of trichloroacetic acid (TCA). The reaction mixture contained 50 mM Tris-HCl (pH8), 50 mM KCl, 10 mM MgCl2, 0.1 mM EDTA, 5 mM dithiothreitol (DTT), 10 μg/ml BSA, 20: g/ml calf thymus DNA, 1 mM ATP, 1 mM CTP, 1 mM GTP, 0.5 mCi ^3H-UTP and 0.5 U of E. coli RNA polymerase enzyme (Epicentre Technology; Madison Wis.). 5 μl of the tested solution were added to 45 μl of reaction mixture, incubated at 37° C. for 15 minutes and then quenched with 150 μl of ice-cold 10% (w/v) TCA. After 30 min in ice, the well content was collected on glass-fiber filters (Filtermat A, Wallac) using a 96 wells cell harvester (Wallac) and radioactivity was determined in a β-Plate scintillation counter (Wallac). Count per min (CPM) values are transformed in % of RNA polymerase inhibition by using the following formula:
% of RNA polymerase=100−[(CPM compound−CPM blank)/(CPM control−CPM blank)]*100
where: CPM compound is CPM in well with compound; CPM blank is CPM average in wells without enzyme template and CPM control is CPM average in wells without compound.

M. catarrhalis = experiment: Activity of concentrated HPLC fractions of the complex against M. catarrhalis; type: cell-based, Moraxella catarrhalis; conditions: eluates of HPLC fractionation of the complex, concentrated under vacuum
[1] = Conversion of factors A2 and B2 into A1 and B1 in DMSO (NMR); type: physicochemical; conditions: room temperature
Description: The GE23077 complex is constituted of two couples of isomers: factors A1, A2 and factors B1, B2. It was observed that the individual pure Factor A1 and Factor A2, when kept in water solution or in mixtures of water miscible solvents and water solutions, reach an equilibrium state between them. […] The equilibration rate was accelerated at acidic and basic pHs. […] Accordingly, if recorded after complete conversion, the spectra relating to factors A2 and B2 correspond to the ones of the factors A1 and B1, respectively.

T1 sequence (P0A8V2 whole entry): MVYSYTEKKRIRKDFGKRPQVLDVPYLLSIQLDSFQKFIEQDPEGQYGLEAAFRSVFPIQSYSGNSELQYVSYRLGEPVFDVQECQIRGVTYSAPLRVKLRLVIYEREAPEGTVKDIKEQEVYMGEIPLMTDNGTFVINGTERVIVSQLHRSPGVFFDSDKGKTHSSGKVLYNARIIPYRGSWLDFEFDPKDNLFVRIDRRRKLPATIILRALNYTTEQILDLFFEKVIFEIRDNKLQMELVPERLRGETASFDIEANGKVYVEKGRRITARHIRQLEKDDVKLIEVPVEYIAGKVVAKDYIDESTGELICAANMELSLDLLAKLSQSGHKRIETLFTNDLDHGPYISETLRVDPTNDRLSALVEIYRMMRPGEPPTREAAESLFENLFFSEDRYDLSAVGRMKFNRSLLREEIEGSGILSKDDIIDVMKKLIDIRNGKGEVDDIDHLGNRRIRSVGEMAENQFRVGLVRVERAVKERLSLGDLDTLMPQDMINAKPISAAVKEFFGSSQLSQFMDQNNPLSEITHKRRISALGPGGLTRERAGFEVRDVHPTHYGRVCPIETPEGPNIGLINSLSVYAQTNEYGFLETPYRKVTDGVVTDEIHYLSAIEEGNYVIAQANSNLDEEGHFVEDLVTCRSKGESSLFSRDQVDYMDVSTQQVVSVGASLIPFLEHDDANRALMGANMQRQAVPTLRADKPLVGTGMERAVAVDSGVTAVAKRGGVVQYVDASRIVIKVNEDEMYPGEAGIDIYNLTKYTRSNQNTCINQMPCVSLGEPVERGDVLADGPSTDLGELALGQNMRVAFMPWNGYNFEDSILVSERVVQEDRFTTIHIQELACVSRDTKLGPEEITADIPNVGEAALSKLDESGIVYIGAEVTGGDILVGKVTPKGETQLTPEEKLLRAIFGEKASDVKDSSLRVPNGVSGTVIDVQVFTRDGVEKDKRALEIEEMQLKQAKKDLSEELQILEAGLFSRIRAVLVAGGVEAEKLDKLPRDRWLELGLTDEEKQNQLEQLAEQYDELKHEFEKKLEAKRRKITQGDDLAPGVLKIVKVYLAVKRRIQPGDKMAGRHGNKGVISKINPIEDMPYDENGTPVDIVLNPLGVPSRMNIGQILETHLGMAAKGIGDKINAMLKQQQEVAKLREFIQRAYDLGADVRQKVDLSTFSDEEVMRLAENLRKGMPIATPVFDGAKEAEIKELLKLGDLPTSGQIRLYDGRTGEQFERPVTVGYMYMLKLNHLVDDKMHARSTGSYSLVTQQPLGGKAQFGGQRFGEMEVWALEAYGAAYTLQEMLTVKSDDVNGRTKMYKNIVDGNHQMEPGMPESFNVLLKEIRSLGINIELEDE
T1 sequence (P0A8T7 whole entry): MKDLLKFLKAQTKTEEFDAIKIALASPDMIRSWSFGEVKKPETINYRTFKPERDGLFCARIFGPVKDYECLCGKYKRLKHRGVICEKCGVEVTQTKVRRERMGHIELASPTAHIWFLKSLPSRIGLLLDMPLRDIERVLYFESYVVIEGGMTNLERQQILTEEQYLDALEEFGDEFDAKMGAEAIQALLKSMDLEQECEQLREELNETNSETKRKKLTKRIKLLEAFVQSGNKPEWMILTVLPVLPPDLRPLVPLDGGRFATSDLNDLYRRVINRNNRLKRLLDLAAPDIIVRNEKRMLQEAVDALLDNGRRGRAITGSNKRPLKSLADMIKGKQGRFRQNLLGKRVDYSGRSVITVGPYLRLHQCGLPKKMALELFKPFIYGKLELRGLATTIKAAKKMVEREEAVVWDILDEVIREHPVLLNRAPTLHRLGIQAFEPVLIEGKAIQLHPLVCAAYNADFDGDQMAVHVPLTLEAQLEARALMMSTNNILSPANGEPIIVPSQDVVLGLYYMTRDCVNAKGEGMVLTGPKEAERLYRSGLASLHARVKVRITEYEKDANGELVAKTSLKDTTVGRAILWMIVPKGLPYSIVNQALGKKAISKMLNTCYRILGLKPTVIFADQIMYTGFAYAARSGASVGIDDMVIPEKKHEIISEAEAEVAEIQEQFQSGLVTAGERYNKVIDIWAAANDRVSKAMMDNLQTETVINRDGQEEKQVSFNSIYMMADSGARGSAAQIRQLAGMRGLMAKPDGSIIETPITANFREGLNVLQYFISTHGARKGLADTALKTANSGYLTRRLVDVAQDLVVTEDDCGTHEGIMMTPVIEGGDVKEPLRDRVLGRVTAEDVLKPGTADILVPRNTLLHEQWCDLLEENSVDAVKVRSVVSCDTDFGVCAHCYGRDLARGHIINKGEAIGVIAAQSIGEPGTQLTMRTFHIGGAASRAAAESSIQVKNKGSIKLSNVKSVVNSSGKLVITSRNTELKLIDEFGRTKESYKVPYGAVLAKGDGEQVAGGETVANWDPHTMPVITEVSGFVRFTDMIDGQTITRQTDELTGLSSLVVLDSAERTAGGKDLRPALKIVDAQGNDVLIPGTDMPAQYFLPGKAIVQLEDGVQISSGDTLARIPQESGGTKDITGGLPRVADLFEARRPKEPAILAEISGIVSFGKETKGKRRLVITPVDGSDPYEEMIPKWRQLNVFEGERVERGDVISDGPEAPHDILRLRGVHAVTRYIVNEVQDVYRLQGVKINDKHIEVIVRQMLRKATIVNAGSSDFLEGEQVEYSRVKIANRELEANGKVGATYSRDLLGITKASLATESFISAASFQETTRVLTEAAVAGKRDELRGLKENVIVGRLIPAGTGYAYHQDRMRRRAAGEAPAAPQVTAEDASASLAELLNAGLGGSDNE
T1 sequence (P0A7Z4 whole entry partner): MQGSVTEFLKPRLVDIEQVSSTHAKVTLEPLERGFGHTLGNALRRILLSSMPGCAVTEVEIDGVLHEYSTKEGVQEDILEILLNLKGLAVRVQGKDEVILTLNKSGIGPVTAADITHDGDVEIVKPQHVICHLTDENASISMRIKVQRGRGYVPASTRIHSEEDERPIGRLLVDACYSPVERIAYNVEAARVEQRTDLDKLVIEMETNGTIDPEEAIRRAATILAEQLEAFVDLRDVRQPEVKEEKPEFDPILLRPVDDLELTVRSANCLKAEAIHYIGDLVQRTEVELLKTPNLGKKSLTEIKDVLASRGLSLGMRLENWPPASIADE
T1 sequence (P0A800 whole entry partner): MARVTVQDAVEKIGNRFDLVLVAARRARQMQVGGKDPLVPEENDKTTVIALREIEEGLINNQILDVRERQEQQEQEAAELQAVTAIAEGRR

SMILES	IC50 (E. coli RNA polymerase; IC50 of E. coli RNA polymerase) [nM]	Inhibition of M. catarrhalis by HPLC fractions containing the separated factors (M. catarrhalis)	Time for full conversion into factor A1 / B1 [1] [h]	IC50 (E. coli RNA polymerase; read-out: IC50 of E. coli RNA polymerase (converted)) [nM]	Time for full conversion into factor A1 / B1 (in words) [1]
CC=C(C)C(=O)NCC1NC(=O)C(C(=O)O)NC(=O)C(O)CNC(=O)C(C(C)O)NC(=O)C(C(O)C(O)C(N)=O)NC(=O)C(C(C)C)NC(=O)C(CO)NC1=O (single isomer, unassigned) [Factor A1]	187	inhibited the test microorganism			
CC=C(C)C(=O)NCC1NC(=O)C(C(=O)O)NC(=O)C(O)CNC(=O)C(C(C)O)NC(=O)C(C(O)C(O)C(N)=O)NC(=O)C(C(C)C)NC(=O)C(CO)NC1=O (single isomer, unassigned) [Factor A2]	43.5	inhibited the test microorganism	12		
CC(C)CC(=O)NCC1NC(=O)C(C(=O)O)NC(=O)C(O)CNC(=O)C(C(C)O)NC(=O)C(C(O)C(O)C(N)=O)NC(=O)C(C(C)C)NC(=O)C(CO)NC1=O (single isomer, unassigned) [Factor B1]	124	inhibited the test microorganism			
CC(C)CC(=O)NCC1NC(=O)C(C(=O)O)NC(=O)C(O)CNC(=O)C(C(C)O)NC(=O)C(C(O)C(O)C(N)=O)NC(=O)C(C(C)C)NC(=O)C(CO)NC1=O (single isomer, unassigned) [Factor B2]		inhibited the test microorganism		24.8	few minutes
